The text below walks through data of ChEMBL document CHEMBL1146978 (Bioorg Med Chem Lett, 2006).

Structures are written as SMILES. Where only a bound is given, the exact number is not on record here.

Chain of Voltage-dependent calcium channel alpha2delta subunit (O77773 whole entry): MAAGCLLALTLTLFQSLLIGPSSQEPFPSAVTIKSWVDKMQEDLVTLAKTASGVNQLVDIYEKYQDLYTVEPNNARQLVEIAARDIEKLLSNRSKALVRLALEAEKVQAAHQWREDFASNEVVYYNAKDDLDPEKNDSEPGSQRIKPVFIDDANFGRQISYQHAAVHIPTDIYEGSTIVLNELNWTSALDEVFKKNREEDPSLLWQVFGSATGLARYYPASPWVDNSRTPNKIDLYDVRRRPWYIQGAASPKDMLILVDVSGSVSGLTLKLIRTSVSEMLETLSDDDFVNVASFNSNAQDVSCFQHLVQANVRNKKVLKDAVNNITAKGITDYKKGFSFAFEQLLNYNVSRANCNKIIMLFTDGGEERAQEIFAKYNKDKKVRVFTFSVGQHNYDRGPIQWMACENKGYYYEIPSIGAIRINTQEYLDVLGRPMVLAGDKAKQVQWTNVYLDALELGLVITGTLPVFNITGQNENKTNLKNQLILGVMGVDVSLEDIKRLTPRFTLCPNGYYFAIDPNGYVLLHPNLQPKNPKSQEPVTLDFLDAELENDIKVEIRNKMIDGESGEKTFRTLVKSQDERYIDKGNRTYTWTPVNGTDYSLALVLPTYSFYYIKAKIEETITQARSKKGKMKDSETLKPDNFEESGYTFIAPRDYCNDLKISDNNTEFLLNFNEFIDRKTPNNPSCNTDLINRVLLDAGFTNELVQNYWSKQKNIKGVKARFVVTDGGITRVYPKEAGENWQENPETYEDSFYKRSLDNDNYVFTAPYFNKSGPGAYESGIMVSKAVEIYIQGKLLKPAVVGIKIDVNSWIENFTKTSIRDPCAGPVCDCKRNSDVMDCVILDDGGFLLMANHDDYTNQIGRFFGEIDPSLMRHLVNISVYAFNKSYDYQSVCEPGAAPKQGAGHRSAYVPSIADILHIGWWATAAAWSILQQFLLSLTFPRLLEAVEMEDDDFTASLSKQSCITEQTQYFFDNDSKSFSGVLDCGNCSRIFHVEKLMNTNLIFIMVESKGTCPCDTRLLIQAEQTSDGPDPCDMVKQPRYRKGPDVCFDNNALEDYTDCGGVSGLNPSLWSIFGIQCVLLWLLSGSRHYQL

The first assay addresses Voltage-dependent calcium channel alpha2delta subunit (Sus scrofa, UniProt O77773). Kind of assay: Displacement of [3H]gabapentin from alpha-2delta calcium channel in pig brain membrane. The format is cell membranes. In general terms: In a radioligand displacement assay an active substance lowers the binding of a labelled ligand.
The IC50 is the concentration needed to halve the response being measured. As for `NCC(CC(=O)O)Cc1ccccc1` (stereo not given), the IC50 is more than 10000 µM.

With `NCC(CC(=O)O)Cc1cccs1` (stereo not given), the 50% inhibitory concentration (IC50) was 2.14 µM.

Consider `NC[C@H](CC(=O)O)Cc1ccco1`, for which the half-inhibitory concentration (IC50) turned out to be 0.178 µM.

Consider `NCC(CC(=O)O)Cc1ccsc1` (stereo not given), for which the half-inhibitory concentration (IC50) was determined as 0.832 µM.

Take `NCC(CC(=O)O)Cc1ccoc1` (stereo not given): the IC50 was found to be 0.518 µM.

Consider `NCC(CC(=O)O)Cc1ccco1` (stereo not given), for which the IC50 stood at 0.421 µM.

On to `NC[C@@H](CC(=O)O)Cc1ccco1`, for which the IC50 was 1.46 µM.

In the case of `NCC(CC(=O)O)CC1CCOC1` (stereo not given), the half-inhibitory concentration (IC50) is more than 10000 µM.

In a further assay the test system is Rattus norvegicus. Kind of assay: Anxiolytic effect in rat at 30 mg/kg, po by Vogel water lick conflict assay assessed by ability to reverse shock-induced suppression of drinking. Type of assay: functional.
Regarding `NCC(CC(=O)O)Cc1cccs1` (stereo not given), the Activity amounted to 10.3%.

In the case of `NCC(CC(=O)O)Cc1ccsc1` (stereo not given), the Activity was -3%.

With `NCC(CC(=O)O)Cc1ccoc1` (stereo not given), the Activity is recorded as -17%.

On to `NCC(CC(=O)O)Cc1ccco1` (stereo not given), for which the Activity stood at 5.3%.

On to `NC[C@@H](CC(=O)O)Cc1ccco1`, for which the Activity is 0.28%.

For `CC(C)C[C@H](CN)CC(=O)O` [PREGABALIN], the Activity is 100%.

In a further assay the test system is Mus musculus. Put plainly: Anticonvulsant activity against DBA/2 mouse at 30 mg/kg, po 2 hrs post dose. Type of assay: functional.
Turning to `NCC(CC(=O)O)Cc1ccccc1` (stereo not given), the Activity is recorded as 0%.

`NCC(CC(=O)O)Cc1cccs1` (stereo not given): the Activity was found to be 40%.

For the compound `NC[C@H](CC(=O)O)Cc1ccco1`, the Activity came out at 40%.

As to `NCC(CC(=O)O)Cc1ccsc1` (stereo not given), the Activity is given as 60%.

Consider `NCC(CC(=O)O)Cc1ccoc1` (stereo not given), for which the Activity is given as 0%.

Turning to `NCC(CC(=O)O)Cc1ccco1` (stereo not given), the Activity worked out at 20%.

Take `NC[C@@H](CC(=O)O)Cc1ccco1`: the Activity is 0%.

Take `NCC(CC(=O)O)CC1CCOC1` (stereo not given): the Activity is recorded as 0%.

As for `CC(C)C[C@H](CN)CC(=O)O` [PREGABALIN], the Activity was found to be 100%.

System in the next assay: not listed separately
Put plainly: Inhibition of [3H]leucine uptake at System L in CHO cells. The format is cell-based.
`NCC(CC(=O)O)Cc1cccs1` (stereo not given) yielded an IC50 of 2940 µM.

Turning to `NC[C@H](CC(=O)O)Cc1ccco1`, the concentration for half-maximal inhibition (IC50) was 10000 µM.

Turning to `NCC(CC(=O)O)Cc1ccsc1` (stereo not given), the concentration for half-maximal inhibition (IC50) turned out to be 7030 µM.

Regarding `NCC(CC(=O)O)Cc1ccoc1` (stereo not given), half-maximal inhibition (IC50) was put at 1420 µM.

Consider `NCC(CC(=O)O)Cc1ccco1` (stereo not given), for which the half-inhibitory concentration (IC50) turned out to be 10000 µM.

As to `NC[C@@H](CC(=O)O)Cc1ccco1`, it took 10000 µM to reach half-maximal inhibition (IC50).

In turn, `CC(C)C[C@H](CN)CC(=O)O` [PREGABALIN] yielded an IC50 of 284 µM.
